From patent US20050142574A1, “Mutants of core 2 B-1, 6-N-acetylglycosaminyltransferase” (Seikagaku Corporation and Glycodesign Holdings Ltd., priority 2003, published 2005)
Positions count from the first letter of the chain named. Like-named read-outs stand apart in the source and are kept apart here.

Columns and labels:
Assay type in all cases: biochemical
[1] = target: T1, C217S human Core 2 GlcNAcT1 (Homo sapiens, UniProt Q02742, C217S); experiment: Effects of sulfhydryl reagents and heavy metals on enzyme activity (% activity); details: relatively high concentrations (FIG. 2), 37° C., 2.0 hours
T1 construct: S-tag (N, cleaved yes); made in house
T1 sequence (Q02742 37-428 C217S): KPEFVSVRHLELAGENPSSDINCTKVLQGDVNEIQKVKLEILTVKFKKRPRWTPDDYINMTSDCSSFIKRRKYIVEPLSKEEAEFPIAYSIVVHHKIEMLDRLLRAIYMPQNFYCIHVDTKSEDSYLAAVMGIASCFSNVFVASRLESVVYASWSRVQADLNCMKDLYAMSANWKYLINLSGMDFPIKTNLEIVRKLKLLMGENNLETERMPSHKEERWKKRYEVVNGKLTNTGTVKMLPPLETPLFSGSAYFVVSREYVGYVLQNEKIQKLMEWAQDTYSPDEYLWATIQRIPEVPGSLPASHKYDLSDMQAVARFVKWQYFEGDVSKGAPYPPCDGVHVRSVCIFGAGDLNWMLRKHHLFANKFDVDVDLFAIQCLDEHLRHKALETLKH
Procedure: (§1) Wild-type and C217S, human and mouse, Core 2 GlcNAcT1s were dissolved in an aqueous solution containing 30 mM 2-morpholinoethanesulfonic acid (MES) buffer (pH 6.7) and 1.0 mg/ml bovine serum albumin (BSA). Iodoacetamide (IAA), 5,5′-dithiobis(2-nitrobenzoic acid) (DTNB), N-ethylmaleimide (NEM), HgCl2 and ZnSO4 were added at the concentrations listed on FIGS. 1 and 2. 1.0 mM UDP-GlcNAc, 0.50 mM Gal(β1-3)GalNAcα-pnp, (3H)UDP-GlcNAc (0.50 μCi) and 30 mM MES buffer (pH 6.7) were added as well. The solutions were incubated at 37° C. for 2.0 hours. The (^3H)UDP-GlcNAc and (^3H)GlcNAc(β1-6)Gal(β1-3)GalNAcα-pnp were separated by solid-phase extraction and the DPM of (^3H)Gal(β1-3) GlcNAc(β1-6)GalNAcα-pnp were counted by liquid scintillation. A solution containing all components with exception of enzymes was prepared to measure background levels. The % activity was calculated as follows: (DPMinhibitor−DPMbackground)/(DPMcontrol−DPMbackground)*100. All assays were performed in duplicate. The results are plotted in FIGS. 1 and 2.

[2] = target: T2, C217S mouse Core 2 GlcNAcT1 (Mus musculus, UniProt Q09324, C217S); experiment: as above; details: relatively high concentrations (FIG. 1), 37° C., 2.0 hours
T2 construct: made in house; host or cells: CHO-S or COS-7 cells, secreted, purified on anti-FLAG M1 beads
T2 sequence (Q09324 with tags, fused parts or gaps R88W/S191T/C217S/T260A/H362D/H420R): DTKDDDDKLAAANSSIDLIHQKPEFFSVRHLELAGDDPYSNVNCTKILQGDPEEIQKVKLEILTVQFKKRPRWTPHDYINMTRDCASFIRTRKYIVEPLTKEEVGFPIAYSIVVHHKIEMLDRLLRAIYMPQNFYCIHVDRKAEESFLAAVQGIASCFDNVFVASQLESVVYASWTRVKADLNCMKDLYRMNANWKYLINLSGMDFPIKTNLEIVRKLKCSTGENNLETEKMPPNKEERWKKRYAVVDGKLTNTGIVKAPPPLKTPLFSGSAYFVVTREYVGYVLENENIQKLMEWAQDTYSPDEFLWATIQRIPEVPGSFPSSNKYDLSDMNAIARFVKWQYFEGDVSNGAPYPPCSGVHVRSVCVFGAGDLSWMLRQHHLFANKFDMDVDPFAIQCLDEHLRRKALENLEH
Procedure: as §1

[3] = target: T3, wild-type human Core 2 GlcNAcT1 (Homo sapiens, UniProt Q02742, I152V); experiment: as above; details: 37° C., 2.0 hours, concentrations listed on FIG. 2
T3 construct: S-tag (N, cleaved yes); made in house
T3 sequence (Q02742 37-428 I152V): T1 sequence (Q02742 37-428 C217S) with I116V, S181C
Procedure: as §1

[4] = target: T4, wild-type mouse Core 2 GlcNAcT1 (Mus musculus, UniProt Q09324); experiment: as above; details: 37° C., 2.0 hours, concentrations listed on FIG. 1
T4 construct: made in house; host or cells: COS-7 or CHO-S cells, secreted into the culture supernatant, purified on anti-FLAG M1 beads
T4 sequence (Q09324 34-428 R88W/S191T/T260A/H362D/H420R): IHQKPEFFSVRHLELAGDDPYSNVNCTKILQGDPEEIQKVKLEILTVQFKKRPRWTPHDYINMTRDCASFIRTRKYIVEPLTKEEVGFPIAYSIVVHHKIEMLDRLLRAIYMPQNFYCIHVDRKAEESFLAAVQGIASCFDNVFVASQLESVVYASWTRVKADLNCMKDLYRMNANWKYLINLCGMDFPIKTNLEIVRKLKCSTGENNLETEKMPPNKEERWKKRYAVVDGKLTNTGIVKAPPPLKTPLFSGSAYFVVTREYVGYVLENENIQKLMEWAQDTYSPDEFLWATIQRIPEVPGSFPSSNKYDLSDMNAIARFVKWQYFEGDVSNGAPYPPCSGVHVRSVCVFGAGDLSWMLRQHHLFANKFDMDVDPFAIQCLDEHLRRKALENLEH
Procedure: as §1

[5] = target: T1, C217S human Core 2 GlcNAcT1; experiment: Kinetic characterization assays (standard enzyme assay with titrated substrate or product); details: for inhibitory potential of the reaction product, C217S compared with wild-type: human enzymes, titrated product in standard assay; for Km: C217S human enzyme
Procedure: (§2) Standard enzyme assays for wild-type and mutant (217Cys→Ser) Core 2 GlcNAcT1 were carried out in a 30 μl solution containing 30 mM 2-morpholinoethanesulfonic acid (MES) buffer (pH 6.7), 1.0 mM UDP-GlcNAc (donor substrate), 1.0 μCi UDP-6-[3H]GlcNAc, 0.50 mM (Galβ1-3)GalNAcα-pNp (acceptor substrate or AS), 1 mg/ml BSA, and 15-25 μU (1 unit=1 micromole/min) per assay of recombinant Core 2 GlcNAcT1 protein. The reaction was incubated for 2.0 hours at 37° C. and stopped by the addition of 460 μl of water. Reactions were frozen at −20° C. if they were not processed immediately. The reaction product Galβ1,3 [^3H]GlcNAc(β1,6)GalNAcα-pNp was separated from unreacted UDP-6[^3H]GlcNAc by solid phase extraction using Waters Sep-Pak columns. Samples were eluted from the column with ethanol, added to 10 ml of scintillation fluid and radioactivity (DPM) was determined.
(§3) Km values were determined by running the standard assay conditions with the exception of the titration of the donor substrate UDP-GlcNAc concentration (for Km,DS) or AS concentration (for Km,AS). The IC50 values for the products UDP and GlcNAc(β1-6)Gal(β1-3)GalNAcα-pNp were determined by running the standard assay conditions and adding titrated product. The mechanism was determined by titrating both donor and acceptor substrates at the same time.

[6] = target: T2, C217S mouse Core 2 GlcNAcT1; experiment: as above; details: for inhibitory potential of the reaction product, C217S compared with wild-type: mouse enzymes, titrated product in standard assay
Procedure: as §2, §3

[7] = target: T3, wild-type human Core 2 GlcNAcT1; experiment: as above
Procedure: as §2, §3

[8] = target: T4, wild-type mouse Core 2 GlcNAcT1; experiment: as above; details: Ordered Bi Bi mechanism, read-out: KD for the donor substrate
Procedure: as §2, §3

[9] = target: T5, wild-type mouse Core 2 GlcNAcT1 (Mus musculus, UniProt Q09324, H362D/H420R/R88W/S191T/T260A); experiment: as above
T5 construct: made in house; host or cells: COS-7 or CHO-S cells, secreted into the culture supernatant, purified on anti-FLAG M1 beads
T5 sequence (Q09324 34-428 R88W/S191T/T260A/H362D/H420R): T4 sequence (Q09324 34-428 R88W/S191T/T260A/H362D/H420R)
Procedure: as §2, §3

[10] = target: T3, wild-type human Core 2 GlcNAcT1; experiment: Activity of stored recombinant enzyme after addition of reducing agents; details: following storage of expressed and purified recombinant enzyme
From the text: (§4) Iodoacetamide, 5,5′-dithiobis(2-nitrobenzoic acid) (DTNB), and N-ethylmaleimide causes inhibition of wild-type human and mouse Core 2 GlcNAcT1s. […] The blocking of this residue by oxidation, alkylation, or heavy metal binding causes inhibition of the enzyme.

[11] = target: T5, wild-type mouse Core 2 GlcNAcT1; experiment: as above; details: following storage of expressed and purified recombinant enzyme
From the text: as §4

[12] = donor substrate titrated, read-out: Km value for the donor substrate
[13] = acceptor substrate titrated, read-out: Km value for the acceptor substrate

Row | Compound | inhibition of enzyme activity [1] | inhibition of enzyme activity [2] | inhibition of enzyme activity [3] | inhibition of enzyme activity [4] | further results
1 | O=C(O)c1cc(SSc2ccc([N+](=O)[O-])c(C(=O)O)c2)ccc1[N+](=O)[O-] [DTNB, 5,5′-dithiobis(2-nitrobenzoic acid)] | not inhibited | not inhibited | inhibition | inhibition | 
2 | O=c1ccn([C@@H]2O[C@H](COP(=O)(O)OP(=O)(O)O)[C@@H](O)[C@H]2O)c(=O)[nH]1 [UDP] |  |  |  |  | inhibitory potential of the reaction product, C217S compared with wild-type [5]: the same for both enzymes; inhibitory potential of the reaction product, C217S compared with wild-type [6]: the same for both enzymes
3 | CCN1C(=O)C=CC1=O [N-ethylmaleimide] | not inhibited | not inhibited | inhibition | inhibition | 
4 | O=S(=O)([O-])[O-].[Zn+2] [Zn^2+, ZnSO4] | insensitive to Hg^2+ only | did not affect | inhibit | inhibit | 
5 | [Cl][Hg][Cl] [Hg^2+, HgCl2] | insensitive | did not affect | inhibit | inhibit | 
6 | NC(=O)CI [Iodoacetamide] | not inhibited | not inhibited | inhibition | inhibition | 
7 | uridine diphospho-N-acetylglucosamine [UDP-GlcNAc] |  |  |  |  | Km [5, 12]: 1100 µM; Kd ([6]; C217S mouse enzyme, Ordered Bi Bi mechanism, read-out: KD for the donor substrate): 110 µM; Km ([6]; C217S mouse enzyme, donor substrate titrated, read-out: Km value for the donor substrate): 1500 µM; Km [7, 12]: 1200 µM; Kd [8]: 110 µM; Km [9, 12]: 1500 µM
8 | O[C@@H](CS)[C@@H](O)CS (racemic) [DTT, 1,4-dithiothreitol] |  |  |  |  | change of enzyme activity after addition of reducing agent [10]: increase; change of enzyme activity after addition of reducing agent [11]: increase
9 | CC(=O)N[C@H]1[C@H](OC[C@H]2O[C@H](Oc3ccc([N+](=O)[O-])cc3)[C@H](NC(C)=O)[C@@H](O[C@@H]3O[C@H](CO)[C@H](O)[C@H](O)[C@H]3O)[C@H]2O)O[C@H](CO)[C@@H](O)[C@@H]1O [Gal(β1-3) GlcNAc(β1-6)GalNAcα-pNp] |  |  |  |  | inhibitory potential of the reaction product, C217S compared with wild-type [5]: the same for both enzymes; inhibitory potential of the reaction product, C217S compared with wild-type [6]: the same for both enzymes
10 | CC(=O)N[C@H]1[C@@H](Oc2ccc([N+](=O)[O-])cc2)O[C@H](CO)[C@H](O)[C@@H]1O[C@@H]1O[C@H](CO)[C@H](O)[C@H](O)[C@H]1O [Gal(β1-3)GalNAcα-pNp] |  |  |  |  | Km [5, 13]: 320 µM; Km ([6]; C217S mouse enzyme, acceptor substrate titrated, read-out: Km value for the acceptor substrate): 130 µM; Km [7, 13]: 340 µM; Km [9, 13]: 150 µM
